Measured values from US5138069A (E. I. Du Pont de Nemours and Company, priority 1988, dated 1992).

Tested on: Renal Hypertensive Rats
Experiment: Antihypertensive effects in renal hypertensive rats
Type: in vivo
Settings: Rattus norvegicus; for minimal effective dose at 10 mg/kg / minimal effective dose at 100 mg/kg: Table 25; for minimal effective dose at 10 mg/kg / minimal effective dose at 3 mg/kg: intravenous; for minimal effective dose at 10 mg/kg: 10 mg/kg or less; for minimal effective dose at 100 mg/kg / minimal effective dose at 30 mg/kg: oral; for minimal effective dose at 100 mg/kg: 100 mg/kg or less; for minimal effective dose at 3 mg/kg / minimal effective dose at 30 mg/kg: Table 26
Description: This procedure increases blood pressure by increasing renin production with consequent elevation of AII levels. Compounds are administered orally at 100 mg/kg and/or intravenously via a cannula in the jugular vein at 10 mg/kg. Arterial blood pressure is continuously measured directly through a carotid artery cannula and recorded using a pressure transducer and a polygraph. Blood pressure levels after treatment are compared to pretreatment levels to determine the antihypertensive effects of the compounds (See Table 25).
Compounds listed in Table 26 were tested in the same manner as described for Table 25, except that in the test for antihypertensive effects in renal hypertensive rats, the compounds were administered orally at 30 mg/kg and intravenously at 3 mg/kg.

SMILES | minimal effective dose at 10 mg/kg [mg/kg] | minimal effective dose at 100 mg/kg [mg/kg] | other results
CCCCc1nc(Cl)c(CO)n1Cc1ccc(-c2occc2C(=O)O)cc1 (single isomer, unassigned) [Example 178, 2-n-Butyl-1-[4-(3-carboxyfuran-2-yl)benzyl]-4-chloro-5-(hydroxymethyl)imidazole] | < 10 | < 100 | 
CCCCc1nc(Cl)c(CC(=O)O)n1Cc1ccc(C(=O)O)cc1 [Example 1, 2-Butyl-1-(4-carboxybenzyl)-4-chloroimidazole-5-acetic acid] | < 10 | > 100 | 
CCCCc1nc(Cl)c(CC(=O)OC)n1Cc1ccc(NC(=O)c2ccccc2C(=O)O)cc1 [Example 2, Methyl 2-butyl-1-[4-(2-carboxybenzamido)benzyl]-4-chloroimidazole-5-acetate] |  |  | minimal effective dose at 10 mg/kg (tested as sodium salt): < 10 mg/kg; minimal effective dose at 100 mg/kg (tested as sodium salt): > 100 mg/kg
CCCCc1nc(Cl)c(COC)n1Cc1ccc(NC(=O)c2ccccc2C(=O)O)cc1 [Example 4, 2-Butyl-1-[4-(2-carboxybenzamido)benzyl]-4-chloro-5-(methoxymethyl)-imidazole] |  |  | minimal effective dose at 10 mg/kg (tested as sodium salt): < 10 mg/kg; minimal effective dose at 100 mg/kg (tested as sodium salt): > 100 mg/kg
CCCCc1nc(Cl)c(CC(=O)OC)n1Cc1ccc(NC(=O)c2c(F)c(F)c(F)c(F)c2C(=O)O)cc1 [Example 8] |  |  | minimal effective dose at 100 mg/kg (tested as sodium salt): > 100 mg/kg
CCCCc1nc(Cl)c(COC)n1Cc1ccc(NC(=O)c2c(Cl)ccc(Cl)c2C(=O)O)cc1 [Example 17] |  |  | minimal effective dose at 10 mg/kg (tested as sodium salt): < 10 mg/kg; minimal effective dose at 100 mg/kg (tested as sodium salt): > 100 mg/kg
CCCCc1nc(Cl)c(COC)n1Cc1ccc(NC(=O)c2ccccc2S(=O)(=O)O)cc1 [Example 18a] |  |  | minimal effective dose at 3 mg/kg: < 3 mg/kg; minimal effective dose at 30 mg/kg: < 30 mg/kg
CCCCc1nc(Cl)c(CO)n1Cc1ccc(-c2cccc(C(=O)O)c2)cc1 [Example 85, 1-[(3'-Carboxybiphenyl-4-yl)-methyl]-2-butyl-4-chloro-5-hydroxymethylimidazole] | < 10 | < 100 | 
CCCCc1nc(Cl)c(COC)n1Cc1ccc(-c2cccc(C(=O)O)c2)cc1 [Example 86, 1-[(3'-Carboxybiphenyl-4-yl)-methyl]-2-butyl-4-chloro-5-methoxymethylimidazole] | < 10 | > 100 | 
CCCCc1nc(Cl)c(CO)n1Cc1ccc(-c2ccccc2-c2nnn[nH]2)cc1 [Example 89, 2-n-butyl-4-chloro-5-hydroxymethyl-1-[(2'-(1H-tetrazol-5-yl)biphenyl-4-yl)methyl]imidazole] | < 10 | < 100 | 
CCCCc1nc(C(F)(F)F)c(CO)n1Cc1ccc(-c2ccccc2-c2nnn[nH]2)cc1 [Example 92B, 2-butyl-5-hydroxymethyl-1-[(2'-(1H-tetrazol-5-yl)biphenyl-4-yl)methyl]-4-trifluoromethylimidazole] |  |  | minimal effective dose at 3 mg/kg: < 3 mg/kg
CCCSc1ncc(CO)n1Cc1ccc(-c2ccccc2C(=O)O)cc1 [Example 93, 1-[(2'-carboxybiphenyl-4-yl)-methyl]-2-propylthio-5-hydroxymethylimidazole] | < 10 | > 100 | 
CCCCc1nc(Cl)c(COC)n1Cc1ccc(-c2ccccc2C(=O)O)cc1 [Example 98] |  |  | minimal effective dose at 10 mg/kg (tested as sodium salt): < 10 mg/kg; minimal effective dose at 100 mg/kg (tested as sodium salt): < 100 mg/kg
CCCCCCc1nc(Cl)c(CO)n1Cc1ccc(-c2ccccc2C(=O)O)cc1 [Example 110] | < 10 | < 100 | 
CCCCc1nc(Cl)c(COC(C)=O)n1Cc1ccc(-c2ccccc2C(=O)O)cc1 [Example 121] | < 10 | < 100 | 
CCCCc1nc(Br)c(CO)n1Cc1ccc(-c2ccccc2-c2nn[nH]n2)cc1 [Example 124C] |  |  | minimal effective dose at 3 mg/kg: < 3 mg/kg; minimal effective dose at 30 mg/kg: < 30 mg/kg
CCCCc1nc(I)c(CO)n1Cc1ccc(-c2ccccc2-c2nnn[nH]2)cc1 [Example 124L] |  |  | minimal effective dose at 3 mg/kg: < 3 mg/kg; minimal effective dose at 30 mg/kg: < 30 mg/kg
CCCCc1nc(Cl)c(C=O)n1Cc1ccc(-c2ccccc2C(=O)O)cc1 [Example 125, 1-[(2'-carboxybiphenyl-4-yl)methyl]-2-butyl-4-chloroimidazole-5-carboxaldehyde] | < 10 | < 100 | 
CC/C=C/c1nc(Cl)c(CO)n1Cc1ccc(-c2ccccc2C(=O)O)cc1 [Example 128, 1-[(2'-Carboxybiphenyl-4-yl)-methyl]-2-(1-trans-butenyl)-4-chloro-5-hydroxymethylimidazole] | < 10 | < 100 | 
CC/C=C/c1nc(Cl)c(C=O)n1Cc1ccc(-c2ccccc2C(=O)O)cc1 [Example 129, 1-[(2'-Carboxybiphenyl-4-yl)methyl]-2-(1-trans-butenyl)-4-chloroimidazole-5-carboxaldehyde] | < 10 | < 100 | 

SMILES | minimal effective dose at 10 mg/kg [mg/kg] | minimal effective dose at 100 mg/kg [mg/kg] | other results
CCCc1nc(C(F)(F)C(F)(F)F)c(C=O)n1Cc1ccc(-c2ccccc2-c2nnn[nH]2)cc1 [Example 140G] |  |  | minimal effective dose at 30 mg/kg: < 30 mg/kg
CCCCc1nc(Cl)c(COC)n1Cc1ccc(-c2ccccc2NS(=O)(=O)C(F)(F)F)cc1 [Example 141, 1-[(2'-trifluoromethanesulfonamidobiphenyl-4-yl)methyl]-2-butyl-4-chloro-5-methoxymethylimidazole] | < 10 | < 100 | 
CCCCc1nc(Cl)c(CO)n1Cc1ccc(-c2ccccc2NS(=O)(=O)C(F)(F)F)cc1 [Example 144] | < 10 | < 100 | 
CCCCc1nc(Cl)c(COC)n1Cc1ccc(-c2ccccc2C(=O)Nc2nnn[nH]2)cc1 [Example 173, 2-n-Butyl-4-chloro-5-methoxymethyl-1-[(2'-((tetrazol-5-yl)aminocarbonyl)biphenyl-4-yl)-methyl]imidazole] |  |  | minimal effective dose at 10 mg/kg (tested as sodium salt): < 10 mg/kg
CCCCc1nc(Cl)c(CO)n1Cc1ccc(-c2ccccc2C(=O)NOC)cc1 [Example 180, 1-[(2'-Methoxyaminocarbonylbiphenyl-4-yl)methyl]-2-butyl-4-chloro-5-hydroxymethylimidazole] | < 10 | > 100 | 
CCCCc1nc(Cl)c(CO)n1Cc1ccc(-c2ccccc2NC(=O)C(F)(F)F)cc1 [Example 183, 1-[(2'-Trifluoroacetamidobiphenyl-4-yl)methyl]-2-butyl-4-chloro-5-hydroxymethylimidazole] | < 10 | > 100 | 
CCCCc1nc(Cl)c(CO)n1Cc1ccc(Oc2ccccc2C(=O)O)cc1 [Example 184, 2-Butyl-4-chloro-1-[4-(2-carboxyphenoxy)benzyl]-5-hydroxymethylimidazole] | < 10 | > 100 | 
CCCCc1nc(Cl)c(CO)n1Cc1ccc(Sc2ccccc2C(=O)O)cc1 [Example 185] | < 10 | > 100 | 
CCCCc1ncc(CO)n1Cc1ccc(OCc2ccccc2C(=O)O)cc1 [Example 193, 1-[4-(2-Carboxybenzyloxy)-benzyl] -2-butyl-5-hydroxymethylimidazole] | < 10 | > 100 | 
CCCCc1nc(Cl)c(CO)n1Cc1ccc(OCc2ccccc2C(=O)O)cc1 [Example 195] | < 10 | < 100 | 
CCCCc1nc(Cl)c(COC(C)=O)n1Cc1ccc(OCc2ccccc2C(=O)O)cc1 [Example 199] |  | > 100 | 
CCCCc1nc(Cl)c(CO)n1Cc1ccc(C(=O)c2ccccc2C(=O)O)cc1 [Example 202, 2-Butyl-1-[4-(2-Carboxybenzoyl)benzyl]-4-chloro-5-(hydroxymethyl)imidazole] |  |  | minimal effective dose at 10 mg/kg (tested as sodium salt): < 10 mg/kg; minimal effective dose at 100 mg/kg (tested as sodium salt): > 100 mg/kg
CCCCc1nc(CO)c(Cl)n1Cc1ccc(C(=O)c2ccccc2C(=O)O)cc1 [Example 203] |  |  | minimal effective dose at 10 mg/kg (tested as sodium salt): < 10 mg/kg; minimal effective dose at 100 mg/kg (tested as sodium salt): < 100 mg/kg
CCCCc1nc(Cl)c(COC)n1Cc1ccc(C(=O)c2ccccc2C(=O)O)cc1 [Example 207] |  |  | minimal effective dose at 10 mg/kg (tested as sodium salt): < 10 mg/kg; minimal effective dose at 100 mg/kg (tested as sodium salt): < 100 mg/kg
CCCCc1nc(Cl)c(C(=O)O)n1Cc1ccc(-c2ccccc2-c2nn[nH]n2)cc1 [Example 252] |  |  | minimal effective dose at 3 mg/kg: < 3 mg/kg; minimal effective dose at 30 mg/kg: < 30 mg/kg
CCCc1nc(C(F)(F)C(F)(F)F)c(C(=O)O)n1Cc1ccc(-c2ccccc2-c2nn[nH]n2)cc1 [Example 265C] |  |  | minimal effective dose at 3 mg/kg: < 3 mg/kg
CCCCc1nc(Cl)c(CO)n1Cc1ccc(-c2ccccc2C(=O)NS(=O)(=O)c2ccccc2)cc1 [Example 318, 1-[(2'-(Benzenesulfonamidocarbonyl)biphenyl-4-yl)methyl]-2-butyl-4-chloro-5-hydroxymethylimidazole] | < 10 | > 100 | 
CCCc1nc(-c2ccccc2)c(C=O)n1Cc1ccc(-c2ccccc2C(=O)O)cc1 [Example 322] |  |  | minimal effective dose at 3 mg/kg: < 3 mg/kg; minimal effective dose at 30 mg/kg: < 30 mg/kg
CCCCc1nc(CO)c(Cl)n1Cc1ccc(-c2ccccc2-c2n[nH]c(C(F)(F)F)n2)cc1 [Example 341, 2-n-Butyl-5-chloro-4-hydroxy-methyl-1-[(2'-(5-trifluoromethyl-1,2,4-triazol-3-yl)biphenyl-4-yl)methyl]imidazole] | < 10 | < 100 | 
